# Laboratory results taken from patent publication US7064114B2, “Gel-microemulsion formulations” (priority 1999, dated 2006).
# Values joined by “and” are separate entries in the source; they are usually repeats but may differ in a detail not shown here. Identical values can stand only once.
# How the values were obtained:
# [1] = cited from earlier work
# human sperm = assay: Computer-assisted spermicidal assay (CASA) on washed highly motile fraction of sperm; type: cell-based; conditions: 3 h at 37° C.; for effect on human sperm motility: concentrations up to those used for GM-4, CASA
# Protocol: All donor specimens were obtained after informed consent and in compliance with the guidelines of the Parker Hughes Institute Institutional Review Board. […] Sigma Chemical Co., St. Louis, Mo.) in the presence and absence of serial 2-fold dilutions of test substance. […] After 3 h incubation at 37° C., the sperm head centroid-derived sperm motility parameters were determined using a Hamilton Thorne Research (Danvers, Mass.) Integrated Visual Optical System (IVOS), version 10 instrument, as previously described (D'Cruz O J, et al., Biol Reprod, 1998;58:1515-26.; D'Cruz O J, et al., Mol Hum Reprod, 1998;4:683-93.; D'Cruz O J, et al., Biol Reprod, 1999;60:435-44.; D'Cruz O J, et al. Biol Reprod, 1999;60:1419-28.). The attributes of sperm kinematic parameters evaluated included numbers of motile (MOT) and progressively (PRG) motile sperm; curvilinear velocity (VCL); average path velocity (VAP); straight-line velocity (VSL); beat-cross frequency (BCF); and the amplitude of lateral head displacement (ALH) and the derivatives, straightness (STR) and linearity (LIN). Data from each individual cell track were recorded and analyzed. For each aliquot sampled, >200 sperm were analyzed. The percentage motilities were compared with those of sham-treated control suspensions of motile sperm.
# [2] = Octanol/water partition coefficient of WHI-07; type: physicochemical
# Protocol: (§1) After the drug was completely dissolved in octanol, 5 ml of water was added to each octanol solution. The mixtures were handshaken vigorously for 10 min, and afterward let to stand overnight until a complete phase separation occurred.
# Samples of water and octanol were taken from each mixture, and directly injected into the HPLC for analysis. The peak area ratios represent the partition coefficient.
# Solubility of WHI-07 = type: physicochemical; conditions: for solubility at 2 h: thermodynamic from solid, n = 3
# Protocol: as §1
# The solubility of WHI-07 in Captex® 300 and polyethylene glycol 300 was carried out using UV-Vis spectrophotometer at 272 nm.
# Calibration curve: Two stock solutions of WHI-07 were prepared in ethanol at concentrations of 4.2 mg/ml and 3.85 mg/ml respectively. The plot of the calibration curve is shown in Curve 1.
# Appropriate amounts of WHI-07 and Captex® 300 or PEG300 were weighed and placed in glass containers. Each sample was stirred with a stir bar at ambient temperature for 2 hours. Each sample was then filtered through 0.45 μm filter, and diluted with ethanol for UV-Vis measurement.
molecule,measurement,setting,value
isononyl-phenyl-polyoxyethylene (9) ether [N-9],average 6-month pregnancy rate,"[1]; users of N-9, several large studies",26%
same,effectiveness in preventing pregnancy,[1]; users of N-9,approximately 75%
"CC(O)CO (stereo not drawn) [propylene glycol, propane-1,2-diol]",EC50 (concentration that decreased the proportion of motile sperm by 50%),human sperm,> 4.2%
same,effect on human sperm motility,human sperm,partially spermicidal at the highest concentration tested
O=C([O-])c1ccccc1.[Na+] [sodium benzoate],effect on human sperm motility,human sperm,little or no inhibitory effects
"COC(=O)C(C)NP(=O)(OC[C@H]1O[C@@H](N2C(=O)NC(=O)C(C)(Br)C2OC)CC1N=[N+]=[N-])Oc1ccc(Br)cc1 (mixture of isomers) [WHI-07, (5R,6R)-and (5S,6S)-5-bromo-6-methoxy-5,6-dihydro-AZT-5′-(para-bromophenylmethoxyalaninyl phosphate)]",logP,"[2]; octanol/water, average of four samples, read-out: Octanol/Water partition coefficient Log KD",2.05
same,Peak area ratio Octanol/water,"[2]; single samples 1-4, HPLC",113.9 and 111.3 and 115.8 and 109.2
same,solubility in oil (medium chain triglyceride),Solubility of WHI-07; medium chain triglyceride,4.1%
same,solubility at 2 h,"Solubility of WHI-07; oil or lipid, in Captex® 300, ambient temperature",40.6 mg/mL
same,solubility at 2 h,"Solubility of WHI-07; organic solvent or mixture, in PEG300, ambient temperature",132 mg/mL
same,solubility in polyethylene glycol 300,Solubility of WHI-07; polyethylene glycol 300,13.1%
same,solubility in water,Solubility of WHI-07; water,< 0.003%
